According to patent US9315508B2, “Treating diabetes with dipeptidyl peptidase-IV inhibitors” (Merck Sharp & Dohme Corp., priority 2012, dated 2016):

Experiments:
mouse = mouse model of cyclophosphamide-induced neutropenia; cited from earlier work
rats = settings: doubled from day 7 to day 14; cited from earlier work
DPP-4 = DPP-4 (Homo sapiens (Human), UniProt P27487); settings: cited from earlier work
[1] = molecular target: dipeptidyl peptidase-IV enzyme (DPP-4) (Homo sapiens (Human), UniProt P27487); assay: continuous fluorometric DPP-4 inhibition assay with substrate Gly-Pro-AMC; assay type: biochemical; settings: soluble human DPP-4, Gly-Pro-AMC substrate
Protocol: Inhibition constants are determined as follows. A continuous fluorometric assay is employed with the substrate Gly-Pro-AMC, which is cleaved by DPP-4 to release the fluorescent AMC leaving group. The kinetic parameters that describe this reaction are as follows: Km=50 μM; kcat=75 s^−1; kcat/Km=1.5×10^6 M^−1s^−1. A typical reaction contains approximately […], 50 μM Gly-Pro-AMC, and buffer (100 mM HEPES, pH 7.5, 0.1 mg/ml BSA) in a total reaction volume of 100 μL. Liberation of AMC is monitored continuously in a 96-well plate fluorometer using an excitation wavelength of 360 nm and an emission wavelength of 460 nm. Under these conditions, approximately 0.8 μM AMC is produced in 30 minutes at 25 degrees C. The enzyme used in these studies was soluble (transmembrane domain and cytoplasmic extension excluded) human protein produced in a baculovirus expression system (Bac-To-Bac, Gibco BRL). […] To measure the dissociation constants for compounds, solutions of inhibitor in DMSO were added to reactions containing enzyme and substrate (final DMSO concentration is 1%). All experiments were conducted at room temperature using the standard reaction conditions described above. To determine the dissociation constants (Ki), reaction rates were fit by non-linear regression to the Michaelis-Menton equation for competitive inhibition. The errors in reproducing the dissociation constants are typically less than two-fold.

dipeptidyl peptidase-IV enzyme (DPP-4), sequence (P27487 29-766): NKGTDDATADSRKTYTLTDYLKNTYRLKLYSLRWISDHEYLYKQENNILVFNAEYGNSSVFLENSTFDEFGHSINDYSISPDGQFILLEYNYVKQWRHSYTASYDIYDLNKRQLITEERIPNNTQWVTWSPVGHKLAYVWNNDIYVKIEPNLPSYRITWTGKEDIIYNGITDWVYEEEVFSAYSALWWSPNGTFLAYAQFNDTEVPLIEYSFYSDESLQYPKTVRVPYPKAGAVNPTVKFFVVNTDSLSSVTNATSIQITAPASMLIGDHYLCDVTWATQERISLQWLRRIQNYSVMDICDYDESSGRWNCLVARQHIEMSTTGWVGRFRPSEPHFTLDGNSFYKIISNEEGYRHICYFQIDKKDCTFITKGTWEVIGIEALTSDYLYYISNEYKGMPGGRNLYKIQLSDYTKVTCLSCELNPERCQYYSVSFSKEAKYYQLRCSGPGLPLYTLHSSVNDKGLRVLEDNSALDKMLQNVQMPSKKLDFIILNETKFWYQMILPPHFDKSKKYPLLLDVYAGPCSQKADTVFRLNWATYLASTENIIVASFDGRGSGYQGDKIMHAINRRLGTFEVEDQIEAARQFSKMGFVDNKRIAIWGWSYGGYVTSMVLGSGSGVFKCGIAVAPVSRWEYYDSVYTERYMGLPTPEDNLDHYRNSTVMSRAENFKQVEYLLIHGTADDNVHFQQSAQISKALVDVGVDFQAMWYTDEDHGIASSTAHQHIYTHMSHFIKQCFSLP
DPP-4, sequence (P27487 39-766, species assumed): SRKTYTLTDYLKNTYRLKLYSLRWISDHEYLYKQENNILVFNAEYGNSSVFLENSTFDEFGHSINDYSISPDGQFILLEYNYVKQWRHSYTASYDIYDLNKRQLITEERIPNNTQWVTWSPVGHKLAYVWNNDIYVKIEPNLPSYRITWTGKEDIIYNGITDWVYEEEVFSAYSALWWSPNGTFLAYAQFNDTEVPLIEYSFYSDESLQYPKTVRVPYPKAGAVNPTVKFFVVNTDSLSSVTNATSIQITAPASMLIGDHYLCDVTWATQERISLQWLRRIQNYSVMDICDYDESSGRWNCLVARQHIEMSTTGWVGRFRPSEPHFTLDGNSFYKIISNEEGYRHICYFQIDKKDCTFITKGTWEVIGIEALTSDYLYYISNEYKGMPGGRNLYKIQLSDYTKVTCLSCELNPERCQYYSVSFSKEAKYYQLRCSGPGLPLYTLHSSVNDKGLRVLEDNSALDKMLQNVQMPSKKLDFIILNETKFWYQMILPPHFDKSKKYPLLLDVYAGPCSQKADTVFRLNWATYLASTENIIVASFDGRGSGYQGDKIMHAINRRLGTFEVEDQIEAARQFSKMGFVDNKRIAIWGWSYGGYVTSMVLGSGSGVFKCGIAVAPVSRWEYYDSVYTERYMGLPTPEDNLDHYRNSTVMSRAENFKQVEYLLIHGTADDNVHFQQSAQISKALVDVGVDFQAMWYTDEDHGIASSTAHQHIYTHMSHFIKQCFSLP

SMILES	IC50 [1] [nM]	other results
CC(C)[C@H](N)C(=O)N1CCC[C@H]1B(O)O [Val-Boro-Pro]		hematopoiesis (mouse): stimulated hematopoiesis
CC(C)N1CCC(c2ccccc2)(c2ccccc2)CC1 [Prodipine, Pro-Pro-diphenyl-phosphonate]		cardiac allograft survival (rats): 14 day
CC[C@H](C)[C@H](N)C(=O)N1CCC[C@H]1C(=O)N[C@H](C(=O)O)[C@@H](C)CC [diprotin A]		degradation of GRF in plasma to GRF[3-44] (DPP-4): prevented
CS(=O)(=O)n1cc2c(n1)CN([C@@H]1C[C@H](N)[C@@H](c3cc(F)ccc3F)[C@@H]3C[C@@H]31)C2 [Example 3]	5.4	

More lines, main results first:

IC50 [1] [nM]	SMILES	other results
9	CS(=O)(=O)n1cc2c(n1)CN([C@@H]1C[C@H](N)[C@@H](c3cc(F)ccc3F)[C@H]3CC13)C2 (stereo partly drawn) [Example 2]	
> 1000	N[C@H]1CC(N2Cc3c[nH]nc3C2)c2ccccc2[C@@H]1c1cc(F)ccc1F (stereo partly drawn) [Example 1]	
